Experiments:
SARS-CoV-2 3CL-protease = SARS-CoV-2 3CL-protease (Severe acute respiratory syndrome coronavirus 2, UniProt P0DTD1); assay: SARS-CoV-2 3C-Like (3CL) Protease Fluorescence Assay (FRET); format: biochemical; details: SARS-CoV-2 3CL-protease 10 nM, 30 min preincubation at RT, substrate 40 μM
[1] = system: 229E human corona virus (hCoV); assay: 229E Live Virus Assay (MRC-5 cells, CPE read by ATPlite); format: cell-based, hCoV-229E; details: Human coronavirus 229E, MRC5; hCoV-229E live virus in MRC-5 cells, MOI 0.05, CPE by ATPlite; run in duplicate

SMILES	IC50 (SARS-CoV-2 3CL-protease) [nM]	EC50 [1] [nM]
CC(C)C[C@@H](C(=O)N1C[C@]2(C[C@H]1C#N)C(=O)Nc1ccccc12)N(C)C(=O)c1cc(OC2CC2)c2c(c1)=NC(C1CC1)N=2 (stereo partly shown) [Example 307]	100 to 1000	100 to 1000
COc1cc(C(=O)N(C)[C@@H](CC(C)C)C(=O)N2C[C@]3(C[C@H]2C#N)C(=O)Nc2ccccc23)cc2c1=NC(C1CC1)N=2 (stereo partly shown) [Example 308]	< 100	100 to 1000
CN(C(=O)[C@@H](O)c1ccc(F)cc1)[C@@H](CC1CC1)C(=O)N1C[C@]2(C[C@H]1C#N)C(=O)Nc1ccccc12 [Example 414, (S)—N—((S)-1-((3R,5′S)-5′-cyano-2-oxospiro[indoline-3,3′-pyrrolidin]-1′-yl)-3-cyclopropyl-1-oxopropan-2-yl)-2-(4-fluorophenyl)-2-hydroxy-N-methyl acetamide]	< 100	< 100
CN(C(=O)[C@H](O)c1ccc(F)cc1)[C@@H](CC1CC1)C(=O)N1C[C@]2(C[C@H]1C#N)C(=O)Nc1ccccc12 [Example 415]	< 100	< 100
[2H]C([2H])([2H])N(C(=O)[C@H](O)c1ccc(F)cc1)[C@@H](CC1CC1)C(=O)N1C[C@]2(C[C@H]1C#N)C(=O)Nc1ccccc12 [Example 422]	< 100	< 100

— patent publication US12540141B2, “Spiropyrrolidine derived antiviral agents” (priority 2020, dated 2026)
